This note sets out measurements from patent US20050059725A1, “Methods of using and preparing thiolutin dioxide” (Aventis Pharma Deutschland GmbH, priority 2001, published 2005).

Common to all, as to type: biochemical
Test [1] deals with angiotensin converting enzymes. Briefly: Selectivity against other zinc-containing metalloproteases: angiotensin converting enzymes. Particulars: selectivity statement.
Another test concerns the target neurolysin (Homo sapiens, UniProt Q9BYT8). Briefly: Neurolysin inhibition assay (fluorogenic substrate, 384-well). Particulars: substrate Mcc-Pro-Leu-Gly-D-Lys(Dnp)-OH 4 μM, 30° C., 30 min, Tris buffer pH 7.5. The method, then: An assay was performed on a CyBio pipetting system in a 384-well plate format in a final assay volume of 16 μl. In brief, 4 μl of appropriately diluted microbial extracts (dilution in 50 mM Tris buffer, pH 7.5) were distributed in wells of test plates (Greiner, white 384-small volume well plates). Thereafter, 4 μl of neurolysin (pre-diluted 1:5, 360 ng of protein) were added to each well. After a 10 minute pre-incubation of the samples and the enzyme at room temperature, the reaction was initiated by the addition of 8 μl of substrate (Mcc-Pro-Leu-Gly-D-Lys (Dnp)—OH, CALBIOCHEM) in Tris buffer. The final test concentration of the substrate was 4 μM.
After pipetting, the plates were immediately placed in a fluorometer (SpectraFluorplus, SLT) and the initial amount of fluorescence was read (λex: 360 nm/λem405 nm). The reaction was then allowed to proceed at 30° C. for 30 min, and a final fluorescence reading was taken.
The data are first blank corrected. Then, after subtracting the values at the zero time point from the respective values after 30 min, sample inhibition activity was expressed as 100−(Net Intensity compound/Net Intensity control)×100(%)
Each test plate contained a reasonable number of positive controls and blanks (buffer instead of enzyme).

The target in a further test is enkephalinase (Homo sapiens, UniProt P08473). Briefly: Selectivity against other zinc-containing metalloproteases: enkephalinase. To be noted: selectivity statement.

Structures are written as SMILES.

Sequence of neurolysin (Q9BYT8 38-704): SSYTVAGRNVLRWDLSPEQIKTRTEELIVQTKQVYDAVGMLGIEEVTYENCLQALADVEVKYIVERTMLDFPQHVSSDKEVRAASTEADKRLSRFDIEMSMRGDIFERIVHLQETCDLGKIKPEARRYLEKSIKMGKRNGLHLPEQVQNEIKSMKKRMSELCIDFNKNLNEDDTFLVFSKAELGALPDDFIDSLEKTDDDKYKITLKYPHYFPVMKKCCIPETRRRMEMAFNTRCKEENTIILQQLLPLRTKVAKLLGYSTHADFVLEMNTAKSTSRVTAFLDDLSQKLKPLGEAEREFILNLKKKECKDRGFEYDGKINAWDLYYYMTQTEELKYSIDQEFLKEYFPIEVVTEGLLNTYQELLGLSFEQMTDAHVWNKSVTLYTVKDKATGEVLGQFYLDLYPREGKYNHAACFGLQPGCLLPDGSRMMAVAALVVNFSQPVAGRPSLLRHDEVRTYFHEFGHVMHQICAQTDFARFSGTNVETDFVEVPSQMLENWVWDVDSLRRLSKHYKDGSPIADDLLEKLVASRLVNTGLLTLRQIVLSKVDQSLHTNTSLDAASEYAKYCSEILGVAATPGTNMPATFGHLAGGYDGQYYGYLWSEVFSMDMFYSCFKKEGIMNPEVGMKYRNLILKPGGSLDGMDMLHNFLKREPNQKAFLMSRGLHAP
Sequence of enkephalinase (P08473 whole entry, species assumed): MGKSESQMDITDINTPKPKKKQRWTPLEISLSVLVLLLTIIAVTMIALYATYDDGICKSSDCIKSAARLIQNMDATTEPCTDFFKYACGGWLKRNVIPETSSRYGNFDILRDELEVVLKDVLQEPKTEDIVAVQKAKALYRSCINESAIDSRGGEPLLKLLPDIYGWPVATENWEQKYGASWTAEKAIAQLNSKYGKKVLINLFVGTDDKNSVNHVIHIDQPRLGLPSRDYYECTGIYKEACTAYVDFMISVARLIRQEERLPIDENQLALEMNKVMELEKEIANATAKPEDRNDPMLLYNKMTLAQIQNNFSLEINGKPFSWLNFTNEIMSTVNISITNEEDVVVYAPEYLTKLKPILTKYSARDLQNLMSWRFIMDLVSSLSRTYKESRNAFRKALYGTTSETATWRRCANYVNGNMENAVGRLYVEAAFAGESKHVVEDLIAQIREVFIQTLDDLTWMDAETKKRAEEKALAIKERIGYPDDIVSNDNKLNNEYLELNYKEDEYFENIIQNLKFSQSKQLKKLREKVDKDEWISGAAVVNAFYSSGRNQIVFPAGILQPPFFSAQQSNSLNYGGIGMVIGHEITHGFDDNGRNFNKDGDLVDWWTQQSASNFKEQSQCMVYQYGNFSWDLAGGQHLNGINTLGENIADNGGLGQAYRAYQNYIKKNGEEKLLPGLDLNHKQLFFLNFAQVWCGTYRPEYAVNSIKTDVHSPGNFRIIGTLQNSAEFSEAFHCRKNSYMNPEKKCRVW

For the compound `CC(=O)NC1=C2SS(=O)(=O)C=C2N(C)C1=O` [thiolutin dioxide], the “blocking of angiotensin converting enzymes” value in test [1] was “does not block”. For the same compound, on neurolysin, the IC50 was determined as 600 nM. Moreover, the blocking of enkephalinase result on enkephalinase is “does not block”.

A word on the IC50: it is the point on the concentration scale where inhibition reaches its midpoint. A lower IC50 goes with higher potency.
